Assay results from US20260159486A1, “BENZO[H]QUINAZOLINE-4-AMINE DERIVATIVES FOR THE TREATMENT OF CANCER” (Redona Therapeutics, Inc., priority 2021, published 2026).

What was measured:
CAL-51 cells = assay: CAL-51 proliferation assay; type: cell-based; conditions: Homo sapiens, CAL-51, 72 h, YO-PRO-1 Iodide readout
Excerpt: (§1) MDA-MB-231 and CAL-51 Proliferation Assay
(§2) Cells (MDA-MB-231 (American Type Culture Collection (ATCC), #HTB-26) or CAL-51 (Deutsche Sammlung von Mikroorganismen und Zellkulturen (DSMZ), #ACC302) as applicable) were cultivated in DMEM High Glucose (4.5 g/L) with L-Glutamine (BioConcept, cat. no. 1-26F03-I) supplemented with 1% Na-pyruvate (Sigma, cat. no. S8636), 1% Penicillin-Streptomycin (BioConcept, cat. no. 4-01F00H), and 10% FBS (Sigma, cat. no. F9665) using standard techniques. Cells were seeded in black, clear-bottom 384 well plates for tissue culture (Greiner Bio-One, cat. no. 781091) at a density of 750 cells per well in 20 μL medium and the plates were incubated overnight at 37° C. with 5% CO2 prior to treatment. Experimental compounds were serially diluted in DMSO to 200× the desired final concentrations. The solutions were then diluted 1:40 with culture medium and 5 μL aliquots were mixed into the wells containing the cells. The final concentration of DMSO was 0.5%. The plates were incubated for 72 hours and cell numbers were then measured using YO-PRO™-1 Iodide (ThermoFisher Scientific, cat. no. Y3603) essentially as recommended by the manufacturer. Briefly, a 12.5 μM solution of YO-PRO™_1 Iodide in 5× YO—PRO buffer (100 mM Na-citrate, 130 mM NaCl, pH 4) was combined with an equal volume of lysis buffer (0.6% NP-40, 30 mM EDTA, 30 mM EGTA, 0.33× YO—PRO buffer) and 12.5 μL of the mixture were dispensed into each well. The plates were incubated at room temperature in the dark for 30 minutes. Fluorescence intensity signals were then measured on a Synergy 4 reader (BioTek) using 485/20 nm and 530/25 nm filters for the excitation and emission, respectively. Relative proliferation values were calculated by normalizing the raw data using DMSO-treated cells (100% proliferation) and the signals obtained from cells that were evaluated at the time of compound addition (0% proliferation). The concentration-response data were fitted to a sigmoidal 4-parameter logistic model with the maximum constrained to 100%. GI50 values were calculated from the curves as the compound concentrations reducing proliferation to 50%.

recombinant human CLK3 = target: T1, recombinant human CLK3 (Homo sapiens, UniProt P49761); assay: CLK3 kinase assay (LANCE Ultra); type: biochemical; conditions: CLK3 0.5 nM, ATP 300 μM, 3 hours at 30° C.
T1 construct: purchased Thermo Fisher Scientific PV3826
Procedure: CLK3 kinase activity was measured using the LANCE® Ultra technology (PerkinElmer) essentially as recommended by the supplier. Briefly, 2.5 μL of test sample at 4× the desired final concentration in 4% DMSO were dispensed into white, low volume, round bottom, 384 well plates (Corning, cat. no. 4512). 5 μL of a mixture containing recombinant human CLK3 (Thermo Fisher Scientific, cat. no. PV3826) and the labeled peptide substrate ULight™-CREBtide (PerkinElmer, cat. no. TRF0107) prepared in 1.33× kinase buffer (Thermo Fisher Scientific, cat. no. PV3189) were then added. Finally, the reactions were started by adding 2.5 μL of a 4× solution of ATP in kinase buffer. The plates were sealed with adhesive foils and incubated for 3 hours at 30° C. in the dark. The final concentrations of CLK3, ULight™-CREBtide, and ATP were 0.5 nM, 50 nM, and 300 μM, respectively. 5 μL of 40 mM EDTA were then added to terminate the reactions. The Eu-anti-phospho-CREB antibody (PerkinElmer, cat. no. TRF0200) diluted in LANCE® detection buffer (PerkinElmer, cat. no. CR97) was then added to a final concentration of 2 nM and the reactions were incubated for 1 hour at room temperature in the dark. The signals were measured using a Synergy 4 reader (BioTek) with a 320/80 nm filter for the excitation and 620/10 nm and 665/8 nm filters for the donor and acceptor emission, respectively. Relative inhibition values were calculated by normalizing the raw data using solvent control wells (0% inhibition) and wells that received no ATP (100% inhibition). IC50 values were calculated by fitting the concentration-response data to a sigmoidal 4-parameter logistic model. IC50 values for CLK3 are determined from duplicate measurements at ten different concentrations (serial 1:3 dilutions).

MDA-MB-231 cells = assay: MDA-MB-231 proliferation assay; type: cell-based; conditions: Homo sapiens, MDA-MB-231, 72 h, YO-PRO-1 Iodide readout
Excerpt: as §1, §2

T1 sequence (P49761 whole entry): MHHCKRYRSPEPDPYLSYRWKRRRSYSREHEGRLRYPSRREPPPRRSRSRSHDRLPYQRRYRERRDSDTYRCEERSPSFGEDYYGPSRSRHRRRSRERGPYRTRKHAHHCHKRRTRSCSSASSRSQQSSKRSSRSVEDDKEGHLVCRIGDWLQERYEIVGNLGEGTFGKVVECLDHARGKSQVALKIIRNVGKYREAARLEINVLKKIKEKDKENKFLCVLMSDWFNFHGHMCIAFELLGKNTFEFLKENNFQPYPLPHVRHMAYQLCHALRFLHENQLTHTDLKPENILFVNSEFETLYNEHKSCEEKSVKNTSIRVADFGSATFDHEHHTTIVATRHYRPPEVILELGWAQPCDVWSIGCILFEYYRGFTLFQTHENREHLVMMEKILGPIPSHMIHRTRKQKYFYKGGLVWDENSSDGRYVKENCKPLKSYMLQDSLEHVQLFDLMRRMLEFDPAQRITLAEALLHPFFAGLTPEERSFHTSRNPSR

IC50 (recombinant human CLK3)	GI50 (MDA-MB-231 cells)	Structure (SMILES)	GI50 (CAL-51 cells)
< 30 nM	100 to 2000 nM	CC1(C)Cc2c(ccc(O[C@H]3CC[C@H](N)CC3)c2N2CCCCC2)-c2ncnc(N)c21 [Example 9, 8-(trans-4-aminocyclohexoxy)-5,5-dimethyl-7-(1-piperidyl)-6H-benzo[h]quinazolin-4-amine]	< 100 nM
30 to 100 nM	100 to 2000 nM	CC1(C)Cc2c(ccc(O[C@H]3CC[C@H](N)CC3)c2N2CCOCC2)-c2ncnc(N)c21 [Example 10, 8-(trans-4-aminocyclohexoxy)-5,5-dimethyl-7-morpholino-6H-benzo[h]quinazolin-4-amine]	100 to 2000 nM
< 30 nM	100 to 2000 nM	CCN(CCO)c1c(O[C@H]2CC[C@@H](N)CC2)ccc2c1CC(C)(C)c1c(N)ncnc1-2 [Example 22, 2-[[4-amino-8-(4-cis-aminocyclohexoxy)-5,5-dimethyl-6H-benzo[h]quinazolin-7-yl]-ethyl-amino]ethanol]	< 100 nM
< 30 nM	< 100 nM	CN(CCO)c1c(O[C@H]2CC[C@@H](N)CC2)ccc2c1CC(C)(C)c1c(N)ncnc1-2 [Example 24, 2-[[4-amino-8-(cis-4-aminocyclohexoxy)-5,5-dimethyl-6H-benzo[h]quinazolin-7-yl]-methyl-amino]ethanol]	< 100 nM
101 to 1000 nM	100 to 2000 nM	COc1ccc2c(c1N1CC(O)C1)CC(C)(C)c1c(N)ncnc1-2 [Example 25, 1-(4-amino-8-methoxy-5,5-dimethyl-6H-benzo[h]quinazolin-7-yl)azetidin-3-ol]	100 to 2000 nM

The remaining lines, values behind:

Structure (SMILES)	IC50 (recombinant human CLK3)	GI50 (MDA-MB-231 cells)	GI50 (CAL-51 cells)
CC1(C)Cc2c(ccc(O[C@H]3CC[C@H](N)CC3)c2N(CCO)CCO)-c2ncnc(N)c21 [Example 11, 2-[[4-amino-8-(trans-4-aminocyclohexoxy)-5,5-dimethyl-6H-benzo[h]quinazolin-7-yl]-(2-hydroxyethyl)amino]ethanol]	< 30 nM	> 2000 nM	100 to 2000 nM
CC1(C)Cc2c(ccc(O[C@H]3CC[C@H](N)CC3)c2NCCO)-c2ncnc(N)c21 [Example 14, 2-[[4-amino-8-(trans-4-aminocyclohexoxy)-5,5-dimethyl-6H-benzo[h]quinazolin-7-yl]amino]ethanol]	< 30 nM	100 to 2000 nM	100 to 2000 nM
COCCNc1c(O[C@H]2CC[C@H](N)CC2)ccc2c1CC(C)(C)c1c(N)ncnc1-2 [Example 18, 8-(trans-4-aminocyclohexoxy)-N7-(2-methoxyethyl)-5,5-dimethyl-6H-benzo[h]quinazoline-4,7-diamine]	101 to 1000 nM	100 to 2000 nM	100 to 2000 nM
CCCOc1c(O[C@H]2CC[C@H](N)CC2)ccc2c1CC(C)(C)c1c(N)ncnc1-2 [Example 19, 8-(trans-4-aminocyclohexoxy)-5,5-dimethyl-7-propoxy-6H-benzo[h]quinazolin-4-amine]	30 to 100 nM	100 to 2000 nM	100 to 2000 nM
CCCN(CCO)c1c(O[C@H]2CC[C@@H](N)CC2)ccc2c1CC(C)(C)c1c(N)ncnc1-2 [Example 23, 2-[[4-amino-8-(cis-4-aminocyclohexoxy)-5,5-dimethyl-6H-benzo[h]quinazolin-7-yl]-propyl-amino]ethanol]	< 30 nM	100 to 2000 nM	100 to 2000 nM
CNC(=O)CN(C)c1c(O[C@H]2CC[C@@H](N)CC2)ccc2c1CC(C)(C)c1c(N)ncnc1-2 [Example 26, 2-[[4-amino-8-(cis-4-aminocyclohexoxy)-5,5-dimethyl-6H-benzo[h]quinazolin-7-yl]-methyl-amino]-N-methyl-acetamide]	101 to 1000 nM	> 2000 nM	> 2000 nM
